Earlier results, collected in patent publication US6955812B2, “Health food and preparation having an anti-obesity effect” (Mitsubishi Heavy Industries, Ltd., priority 2001, dated 2005).

System: HepG2 cells
Conditions: cultured HepG2 cells of a human liver model; from Japanese patent application No. 2000-202404

NC(CO)CS(=O)(=O)O [D-cysteinolic acid]
effect on neutral fat (triglyceride): greatly suppressing
